The values below come from the NIST ThermoML archive (doi:10.1021/je700179q).

For this series the following is noted: Crystal; visual observation.

Structures are written as SMILES. ± gives the expanded uncertainty stated by the source.

Turning to `c1ccc2c(c1)Cc1ccccc1-2` [fluorene], the Normal melting temperature was determined as 116.00 ± 1 °C.
